Source: ChEMBL document CHEMBL3352455, “Small molecule disruptors of the glucokinase-glucokinase regulatory protein interaction: 4. Exploration of a novel binding pocket” (J Med Chem, 2014)

What was measured:
[1] = Intrinsic clearance in human liver microsomes at 1 uM after 30 mins in presence of NADPH; type: ADME; settings: read-out: CLH
[2] = Intrinsic clearance in rat liver microsomes at 1 uM after 30 mins in presence of NADPH; type: ADME; settings: read-out: CLH
[3] = biological target: T1, Hexokinase-4 (Homo sapiens, UniProt P35557); test: Inhibition of fluorescein-labeled human GK interaction with biotin-labeled human GKRP compound incubated for 20 mins prior to addition of fluorescein-labeled GK measured after 2 to 4 hrs by AlphaScreen assay
T1 sequence (P35557 whole entry): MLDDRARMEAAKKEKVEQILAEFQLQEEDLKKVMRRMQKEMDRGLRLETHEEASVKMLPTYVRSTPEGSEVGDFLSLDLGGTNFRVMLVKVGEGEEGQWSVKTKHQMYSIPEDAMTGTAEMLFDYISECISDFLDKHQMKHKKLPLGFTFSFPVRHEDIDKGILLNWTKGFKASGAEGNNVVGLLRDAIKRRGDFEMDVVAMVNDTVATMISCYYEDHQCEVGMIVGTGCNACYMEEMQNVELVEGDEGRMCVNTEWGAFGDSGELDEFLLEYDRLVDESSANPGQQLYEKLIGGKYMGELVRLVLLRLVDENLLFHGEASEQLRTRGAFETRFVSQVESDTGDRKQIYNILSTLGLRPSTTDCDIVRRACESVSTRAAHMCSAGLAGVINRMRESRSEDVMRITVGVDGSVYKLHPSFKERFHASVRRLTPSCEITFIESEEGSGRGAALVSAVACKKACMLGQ

SMILES	microsomal CLint at 1 µM [1] [µL/min/mg]	microsomal CLint at 1 µM [2] [µL/min/mg]	IC50 [3] [nM]
Nc1ccc(S(=O)(=O)N2CCN(c3ccc(C(O)(C(F)(F)F)C(F)(F)F)cn3)CC2)cn1	< 14	< 14	176
Nc1ccc(S(=O)(=O)N2CCN(c3ncc(C(O)(C(F)(F)F)C(F)(F)F)cc3Cl)CC2)cn1	< 14	26	201
Nc1ccc(S(=O)(=O)N2CCN(c3ncc(C(O)(C(F)(F)F)C(F)(F)F)cc3Br)CC2)cn1	< 14	32	112
COc1cc(C(O)(C(F)(F)F)C(F)(F)F)cnc1N1CCN(S(=O)(=O)c2ccc(N)nc2)CC1	< 14	< 14	1110
Nc1ccc(S(=O)(=O)N2CCN(c3ncc(C(O)(C(F)(F)F)C(F)(F)F)cc3C3CC3)CC2)cn1	38	27	601
Nc1ccc(S(=O)(=O)N2CCN(c3ncc(C(O)(C(F)(F)F)C(F)(F)F)cc3C#CC3CC3)CC2)cn1	< 14	67	33
CC(C)(O)C#Cc1cc(C(O)(C(F)(F)F)C(F)(F)F)cnc1N1CCN(S(=O)(=O)c2ccc(N)nc2)CC1	< 14	16	49
Nc1ccc(S(=O)(=O)N2CCN(c3ncc(C(O)(C(F)(F)F)C(F)(F)F)cc3-c3cc[nH]n3)CC2)cn1	< 14	20	201
CC(C)n1cc(-c2cc(C(O)(C(F)(F)F)C(F)(F)F)cnc2N2CCN(S(=O)(=O)c3ccc(N)nc3)CC2)cn1	38	198	23
CC(C)(C)n1cc(-c2cc(C(O)(C(F)(F)F)C(F)(F)F)cnc2N2CCN(S(=O)(=O)c3ccc(N)nc3)CC2)cn1	86	459	87
Cc1c(-c2cc(C(O)(C(F)(F)F)C(F)(F)F)cnc2N2CCN(S(=O)(=O)c3ccc(N)nc3)CC2)cnn1C	28	88	40
Cn1cc(-c2cc(C(O)(C(F)(F)F)C(F)(F)F)cnc2N2CCN(S(=O)(=O)c3ccc(N)nc3)CC2)c(C(F)(F)F)n1	50	121	30000
CS(=O)(=O)Nc1cccc(-c2cc(C(O)(C(F)(F)F)C(F)(F)F)cnc2N2CCN(S(=O)(=O)c3ccc(N)nc3)CC2)c1	40	81	309
NC(=O)c1cccc(-c2cc(C(O)(C(F)(F)F)C(F)(F)F)cnc2N2CCN(S(=O)(=O)c3ccc(N)nc3)CC2)c1	17	63	50
CS(=O)(=O)c1ccc(-c2cc(C(O)(C(F)(F)F)C(F)(F)F)cnc2N2CCN(S(=O)(=O)c3ccc(N)nc3)CC2)cc1	32	103	42
Nc1ccc(S(=O)(=O)N2CCN(c3ncc(C(O)(C(F)(F)F)C(F)(F)F)cc3-c3ccncc3)CC2)cn1	15	31	21
Nc1ccc(S(=O)(=O)N2CCN(c3ncc(C(O)(C(F)(F)F)C(F)(F)F)cc3-c3cnccc3F)CC2)cn1	17	22	24
Cc1cncc(-c2cc(C(O)(C(F)(F)F)C(F)(F)F)cnc2N2CCN(S(=O)(=O)c3ccc(N)nc3)CC2)c1	37	259	29
Cc1ccc(-c2cc(C(O)(C(F)(F)F)C(F)(F)F)cnc2N2CCN(S(=O)(=O)c3ccc(N)nc3)CC2)cn1	43	182	40
Nc1ccc(S(=O)(=O)N2CCN(c3ncc(C(O)(C(F)(F)F)C(F)(F)F)cc3-c3ccc4sccc4c3)CC2)cn1	48	487	47
Nc1ccc(S(=O)(=O)N2CCN(c3ncc(C(O)(C(F)(F)F)C(F)(F)F)cc3-c3ccc4scnc4c3)CC2)cn1	39	147	35
Nc1ccc(S(=O)(=O)N2CCN(c3ncc(C(O)(C(F)(F)F)C(F)(F)F)cc3-c3ccc4ocnc4c3)CC2)cn1	< 14	120	20
CN1C(=O)Cc2cc(-c3cc(C(O)(C(F)(F)F)C(F)(F)F)cnc3N3CCN(S(=O)(=O)c4ccc(N)nc4)CC3)ccc21	15	221	20
Nc1ccc(S(=O)(=O)N2CCN(c3ncc(C(O)(C(F)(F)F)C(F)(F)F)cc3-c3ccc4c(c3)CC(=O)N4)CC2)cn1	< 14	119	33
Nc1ccc(S(=O)(=O)N2CCN(c3ncc(C(O)(C(F)(F)F)C(F)(F)F)cc3-c3ccc4[nH]ncc4c3)CC2)cn1	27	88	60
Nc1ccc(S(=O)(=O)N2CCN(c3ncc(C(O)(C(F)(F)F)C(F)(F)F)cc3-c3cccc4[nH]ncc34)CC2)cn1	42	93	1950
Nc1ccc(S(=O)(=O)N2CCN(c3ncc(C(O)(C(F)(F)F)C(F)(F)F)cc3-c3cc4ccccc4[nH]3)CC2)cn1	< 14	146	27
Nc1ccc(S(=O)(=O)N2CCN(c3ncc(C(O)(C(F)(F)F)C(F)(F)F)cc3-c3cc4ccccc4s3)CC2)cn1	< 14	315	48

The next compounds have a lower IC50 [3] than those just listed; values first:

microsomal CLint at 1 µM [1] [µL/min/mg]	microsomal CLint at 1 µM [2] [µL/min/mg]	IC50 [3] [nM]	SMILES
< 14	40	11	Nc1ccc(S(=O)(=O)N2CCN(c3ncc(C(O)(C(F)(F)F)C(F)(F)F)cc3-c3ccc(F)cc3)CC2)cn1
< 14	65	14	Nc1ccc(S(=O)(=O)N2CCN(c3ncc(C(O)(C(F)(F)F)C(F)(F)F)cc3C#CCO)CC2)cn1
15	399	5	COCC#Cc1cc(C(O)(C(F)(F)F)C(F)(F)F)cnc1N1CCN(S(=O)(=O)c2ccc(N)nc2)CC1
< 14	68	17	Nc1ccc(S(=O)(=O)N2CCN(c3ncc(C(O)(C(F)(F)F)C(F)(F)F)cc3C#CCCO)CC2)cn1
20	194	5	CCn1cc(-c2cc(C(O)(C(F)(F)F)C(F)(F)F)cnc2N2CCN(S(=O)(=O)c3ccc(N)nc3)CC2)cn1
< 14	57	19	Nc1ccc(S(=O)(=O)N2CCN(c3ncc(C(O)(C(F)(F)F)C(F)(F)F)cc3-c3ccoc3)CC2)cn1
29	399	5	Cc1csc(-c2cc(C(O)(C(F)(F)F)C(F)(F)F)cnc2N2CCN(S(=O)(=O)c3ccc(N)nc3)CC2)c1
< 14	49	7	Nc1ccc(S(=O)(=O)N2CCN(c3ncc(C(O)(C(F)(F)F)C(F)(F)F)cc3-c3ccccc3)CC2)cn1
< 14	47	7	Nc1ccc(S(=O)(=O)N2CCN(c3ncc(C(O)(C(F)(F)F)C(F)(F)F)cc3-c3ccccc3F)CC2)cn1
25	52	8	Nc1ccc(S(=O)(=O)N2CCN(c3ncc(C(O)(C(F)(F)F)C(F)(F)F)cc3-c3cccc(F)c3)CC2)cn1
22	125	6	Nc1ccc(S(=O)(=O)N2CCN(c3ncc(C(O)(C(F)(F)F)C(F)(F)F)cc3-c3ccccc3O)CC2)cn1
24	19	11	Nc1ccc(S(=O)(=O)N2CCN(c3ncc(C(O)(C(F)(F)F)C(F)(F)F)cc3-c3cncc(F)c3)CC2)cn1
25	265	16	COc1ccc(-c2cc(C(O)(C(F)(F)F)C(F)(F)F)cnc2N2CCN(S(=O)(=O)c3ccc(N)nc3)CC2)cn1
44	58	17	COc1cncc(-c2cc(C(O)(C(F)(F)F)C(F)(F)F)cnc2N2CCN(S(=O)(=O)c3ccc(N)nc3)CC2)c1
< 14	99	15	Cc1nc2cc(-c3cc(C(O)(C(F)(F)F)C(F)(F)F)cnc3N3CCN(S(=O)(=O)c4ccc(N)nc4)CC3)ccc2o1
